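In this assay, cells in 96-well plates receive the compound at five concentrations for 48 hours. Endpoints are linearly interpolated between the surrounding concentrations. GI50 is the concentration that inhibits growth by half. TGI marks complete inhibition of growth.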
Legend:
Assay in all cases: NCI anticancer screen, dose series, 48 h
IGROV1 ovarian = system: IGROV1 ovarian
MDA-MB-231 breast = system: MDA-MB-231 breast
A498 renal = system: A498 renal
SK-MEL-28 melanoma = system: SK-MEL-28 melanoma
BT-549 breast = system: BT-549 breast
U251 CNS = system: U251 CNS
HOP-62 NSCLC = system: HOP-62 NSCLC
M14 melanoma = system: M14 melanoma
OVCAR-5 ovarian = system: OVCAR-5 ovarian
HL-60(TB) leukemia = system: HL-60(TB) leukemia
OVCAR-3 ovarian = system: OVCAR-3 ovarian
KM12 colon = system: KM12 colon
MDA-MB-435 = system: MDA-MB-435
NCI-H522 lung = system: NCI-H522 lung
NCI-H23 lung = system: NCI-H23 lung
EKVX NSCLC = system: EKVX NSCLC
OVCAR-4 ovarian = system: OVCAR-4 ovarian
SW-620 colon = system: SW-620 colon
SK-OV-3 ovarian = system: SK-OV-3 ovarian
A549 NSCLC = system: A549 NSCLC
ACHN renal = system: ACHN renal
HCT-15 colon = system: HCT-15 colon
COLO 205 colon = system: COLO 205 colon
LOX IMVI melanoma = system: LOX IMVI melanoma
HCT-116 colon = system: HCT-116 colon
TK-10 renal = system: TK-10 renal
MALME-3M melanoma = system: MALME-3M melanoma
SK-MEL-5 melanoma = system: SK-MEL-5 melanoma
HT29 colon = system: HT29 colon
CAKI-1 renal = system: CAKI-1 renal
UO-31 renal = system: UO-31 renal
T-47D breast = system: T-47D breast
OVCAR-8 ovarian = system: OVCAR-8 ovarian
HCC-2998 colon = system: HCC-2998 colon
HOP-92 NSCLC = system: HOP-92 NSCLC
UACC-257 melanoma = system: UACC-257 melanoma
SF-539 CNS = system: SF-539 CNS
PC-3 prostate = system: PC-3 prostate
SK-MEL-2 melanoma = system: SK-MEL-2 melanoma
DU-145 prostate = system: DU-145 prostate
SF-295 CNS = system: SF-295 CNS
SNB-19 CNS = system: SNB-19 CNS
SR leukemia = system: SR leukemia
SNB-75 CNS = system: SNB-75 CNS
RPMI-8226 leukemia = system: RPMI-8226 leukemia
SF-268 CNS = system: SF-268 CNS
HS 578T breast = system: HS 578T breast
UACC-62 melanoma = system: UACC-62 melanoma
K-562 leukemia = system: K-562 leukemia
RXF 393 renal = system: RXF 393 renal
786-0 renal = system: 786-0 renal
NCI-H226 lung = system: NCI-H226 lung
MCF7 breast = system: MCF7 breast
SN12C renal = system: SN12C renal
NCI/ADR-RES ovarian = system: NCI/ADR-RES ovarian
MOLT-4 leukemia = system: MOLT-4 leukemia
NCI-H460 lung = system: NCI-H460 lung
CCRF-CEM leukemia = system: CCRF-CEM leukemia

Cc1[nH]c(/C=C2\C(=O)Nc3ccc(F)cc32)c(C)c1C(=O)NC[C@H](O)CN1CCOCC1 was tested, and the GI50 (IGROV1 ovarian) was 2.73 µM, the TGI (IGROV1 ovarian) was > 10 µM and the GI50 (MDA-MB-231 breast) was 4.25 µM. The TGI (MDA-MB-231 breast) was > 10 µM, the GI50 (A498 renal) was 3.29 µM and the TGI (A498 renal) was > 10 µM. The GI50 (SK-MEL-28 melanoma) was 4.16 µM, the TGI (SK-MEL-28 melanoma) was > 10 µM and the GI50 (BT-549 breast) was 6.47 µM. The TGI (BT-549 breast) was > 10 µM, the GI50 (U251 CNS) was 6.65 µM and the TGI (U251 CNS) was > 10 µM. The GI50 (HOP-62 NSCLC) was 4.41 µM, the TGI (HOP-62 NSCLC) was > 10 µM and the GI50 (M14 melanoma) was 0.943 µM. The TGI (M14 melanoma) was > 10 µM, the GI50 (OVCAR-5 ovarian) was 2.85 µM and the TGI (OVCAR-5 ovarian) was > 10 µM. The GI50 (HL-60(TB) leukemia) was 1.03 µM, the TGI (HL-60(TB) leukemia) was 5.43 µM and the GI50 (OVCAR-3 ovarian) was > 10 µM. For the same compound, the TGI (OVCAR-3 ovarian) was > 10 µM, the GI50 (KM12 colon) was 0.0691 µM and the TGI (KM12 colon) was > 10 µM. The GI50 (MDA-MB-435) was 3.2 µM, the TGI (MDA-MB-435) was > 10 µM and the GI50 (NCI-H522 lung) was > 10 µM. The TGI (NCI-H522 lung) was > 10 µM, the GI50 (NCI-H23 lung) was 2.41 µM and the TGI (NCI-H23 lung) was > 10 µM. The GI50 (EKVX NSCLC) was 8.02 µM, the TGI (EKVX NSCLC) was > 10 µM and the GI50 (OVCAR-4 ovarian) was 7.95 µM. For the same compound, the TGI (OVCAR-4 ovarian) was > 10 µM, the GI50 (SW-620 colon) was 2.3 µM and the TGI (SW-620 colon) was > 10 µM. For the same compound, the GI50 (SK-OV-3 ovarian) was 2.95 µM, the TGI (SK-OV-3 ovarian) was > 10 µM and the GI50 (A549 NSCLC) was 6.02 µM. For the same compound, the TGI (A549 NSCLC) was > 10 µM, the GI50 (ACHN renal) was 3.49 µM and the TGI (ACHN renal) was > 10 µM. The GI50 (HCT-15 colon) was 2.83 µM, the TGI (HCT-15 colon) was > 10 µM and the GI50 (COLO 205 colon) was 3.41 µM. The TGI (COLO 205 colon) was > 10 µM, the GI50 (LOX IMVI melanoma) was 2.33 µM and the TGI (LOX IMVI melanoma) was > 10 µM. The GI50 (HCT-116 colon) was 2.42 µM, the TGI (HCT-116 colon) was > 10 µM and the GI50 (TK-10 renal) was 5.37 µM. The TGI (TK-10 renal) was > 10 µM, the GI50 (MALME-3M melanoma) was 4.21 µM and the TGI (MALME-3M melanoma) was > 10 µM. The GI50 (SK-MEL-5 melanoma) was 4.04 µM, the TGI (SK-MEL-5 melanoma) was > 10 µM and the GI50 (HT29 colon) was 2.91 µM. For the same compound, the TGI (HT29 colon) was > 10 µM, the GI50 (CAKI-1 renal) was 1.66 µM and the TGI (CAKI-1 renal) was > 10 µM. The GI50 (UO-31 renal) was 1.47 µM, the TGI (UO-31 renal) was > 10 µM and the GI50 (T-47D breast) was > 10 µM. For the same compound, the TGI (T-47D breast) was > 10 µM, the GI50 (OVCAR-8 ovarian) was 5.41 µM and the TGI (OVCAR-8 ovarian) was > 10 µM. The GI50 (HCC-2998 colon) was 5.17 µM, the TGI (HCC-2998 colon) was > 10 µM and the GI50 (HOP-92 NSCLC) was 1.17 µM. For the same compound, the TGI (HOP-92 NSCLC) was 6.84 µM, the GI50 (UACC-257 melanoma) was 8.67 µM and the TGI (UACC-257 melanoma) was > 10 µM. The GI50 (SF-539 CNS) was 4.31 µM, the TGI (SF-539 CNS) was > 10 µM and the GI50 (PC-3 prostate) was 2.64 µM. The TGI (PC-3 prostate) was > 10 µM, the GI50 (SK-MEL-2 melanoma) was 2.16 µM and the TGI (SK-MEL-2 melanoma) was 8.68 µM. The GI50 (DU-145 prostate) was 3.65 µM, the TGI (DU-145 prostate) was > 10 µM and the GI50 (SF-295 CNS) was > 10 µM. The TGI (SF-295 CNS) was > 10 µM, the GI50 (SNB-19 CNS) was > 10 µM and the TGI (SNB-19 CNS) was > 10 µM. For the same compound, the GI50 (SR leukemia) was 3.41 µM, the TGI (SR leukemia) was > 10 µM and the GI50 (SNB-75 CNS) was 7.33 µM. For the same compound, the TGI (SNB-75 CNS) was > 10 µM, the GI50 (RPMI-8226 leukemia) was 3.54 µM and the TGI (RPMI-8226 leukemia) was > 10 µM. For the same compound, the GI50 (SF-268 CNS) was 4.83 µM, the TGI (SF-268 CNS) was > 10 µM and the GI50 (HS 578T breast) was 2.12 µM. For the same compound, the TGI (HS 578T breast) was > 10 µM, the GI50 (UACC-62 melanoma) was 3.55 µM and the TGI (UACC-62 melanoma) was > 10 µM. The GI50 (K-562 leukemia) was 4.96 µM, the TGI (K-562 leukemia) was > 10 µM and the GI50 (RXF 393 renal) was 2.33 µM. The TGI (RXF 393 renal) was > 10 µM, the GI50 (786-0 renal) was 4.91 µM and the TGI (786-0 renal) was > 10 µM. For the same compound, the GI50 (NCI-H226 lung) was 2.33 µM, the TGI (NCI-H226 lung) was > 10 µM and the GI50 (MCF7 breast) was 3.11 µM. For the same compound, the TGI (MCF7 breast) was > 10 µM, the GI50 (SN12C renal) was 3.05 µM and the TGI (SN12C renal) was > 10 µM. For the same compound, the GI50 (NCI/ADR-RES ovarian) was > 10 µM, the TGI (NCI/ADR-RES ovarian) was > 10 µM and the GI50 (MOLT-4 leukemia) was 2.61 µM. The TGI (MOLT-4 leukemia) was > 10 µM, the GI50 (NCI-H460 lung) was 2.39 µM and the TGI (NCI-H460 lung) was > 10 µM. The GI50 (CCRF-CEM leukemia) was 0.0624 µM and the TGI (CCRF-CEM leukemia) was > 10 µM.
In the case of CCN(CC)CCS(=O)c1c2cc(OC)ccc2nc2ccc(OC)cc12 (centres undefined), the TGI (IGROV1 ovarian) is reported as 8.52 µM, the TGI (MDA-MB-231 breast) is reported as 28.4 µM and the TGI (A498 renal) is reported as 33.1 µM. For the same compound, the TGI (SK-MEL-28 melanoma) was 34.4 µM, the TGI (BT-549 breast) was 31.2 µM and the TGI (U251 CNS) was > 60.6 µM. For the same compound, the TGI (HOP-62 NSCLC) was 44.8 µM, the TGI (M14 melanoma) was 26.3 µM and the TGI (OVCAR-5 ovarian) was 36.1 µM. The TGI (HL-60(TB) leukemia) was > 100 µM, the TGI (OVCAR-3 ovarian) was 15.6 µM and the TGI (KM12 colon) was > 57.5 µM. For the same compound, the TGI (MDA-MB-435) was 26.6 µM, the TGI (NCI-H522 lung) was 1.38 µM and the TGI (NCI-H23 lung) was 41.3 µM. The TGI (EKVX NSCLC) was 30.8 µM, the TGI (OVCAR-4 ovarian) was 29.7 µM and the TGI (SW-620 colon) was > 21.9 µM. It also gave a TGI (SK-OV-3 ovarian) of 40.9 µM, a TGI (A549 NSCLC) of 55.3 µM and a TGI (ACHN renal) of 5.44 µM. The TGI (HCT-15 colon) was 16.6 µM, the TGI (COLO 205 colon) was 3.99 µM and the TGI (LOX IMVI melanoma) was > 42.9 µM. For the same compound, the TGI (HCT-116 colon) was 4.55 µM, the TGI (TK-10 renal) was 11.7 µM and the TGI (MALME-3M melanoma) was 2.51 µM. The TGI (SK-MEL-5 melanoma) was 32.3 µM, the TGI (HT29 colon) was 12 µM and the TGI (CAKI-1 renal) was 23.9 µM. For the same compound, the TGI (UO-31 renal) was 5.43 µM, the TGI (T-47D breast) was 4.04 µM and the TGI (OVCAR-8 ovarian) was 21 µM. The TGI (HCC-2998 colon) was 40.7 µM, the TGI (HOP-92 NSCLC) was > 24.3 µM and the TGI (UACC-257 melanoma) was 17.6 µM. For the same compound, the TGI (SF-539 CNS) was 6 µM, the TGI (PC-3 prostate) was 26.9 µM and the TGI (SK-MEL-2 melanoma) was 40.3 µM. It also gave a TGI (DU-145 prostate) of 4.04 µM, a TGI (SF-295 CNS) of 44.2 µM and a TGI (SNB-19 CNS) of 72 µM. For the same compound, the TGI (SR leukemia) was > 23.7 µM, the TGI (SNB-75 CNS) was 36 µM and the TGI (RPMI-8226 leukemia) was 7.11 µM. The TGI (SF-268 CNS) was 23.5 µM, the TGI (HS 578T breast) was 29.1 µM and the TGI (UACC-62 melanoma) was 36.8 µM. For the same compound, the TGI (K-562 leukemia) was > 25.7 µM, the TGI (RXF 393 renal) was 24.6 µM and the TGI (786-0 renal) was 4.35 µM. The TGI (NCI-H226 lung) was 39.5 µM, the TGI (MCF7 breast) was > 24.9 µM and the TGI (SN12C renal) was 9.64 µM. For the same compound, the TGI (NCI/ADR-RES ovarian) was 52.6 µM, the TGI (MOLT-4 leukemia) was > 21.2 µM and the TGI (NCI-H460 lung) was > 82.2 µM. For the same compound, the TGI (CCRF-CEM leukemia) was > 25.6 µM.

From PubChem BioAssay (NCI)
